From patent US8969409B2, “Treatment for pulmonary hypertension” (United Therapeutics Corporation, priority 2010, dated 2015)

Columns and labels:
[1] = test system: pulmonary artery pressure (PAP); assay: Rat model of acute PAH: U-44069 infusion, pulmonary artery pressure by telemetry; format: in vivo
Method: This study utilized administration of a thromboxane agonist to elevate pulmonary artery pressure (PAP) in the rat as a model for PAH. Treprostinil was administered to the rats by oral gavage (UT-15C), nose-only inhalation (Tyvaso) or in a combined oral+inhalation regimen, followed by PAP assessment.
Experimental Design: For this study, a rat model of acute PAH was developed with the ability to measure real-time PAP by telemetry from a catheter surgically implanted into the rat pulmonary artery. To induce PAH in this model, a 15 minute intravenous (IV) infusion of the thromboxane agoinst, U44069, was administered, and PAP was monitored and recorded every 5 seconds.
To establish this model, initial testing and optimization of the concentration and infusion rate of the U-44069 was performed to best achieve elevated PAP. […] Following the preliminary individual oral and inhaled treprostinil range-finding studies, a combination administration of oral+inhaled treprostinil was performed.
The animals received U-44069 (0.5 mg/mL) at a dose rate of 10 mL/kg/hr for 15 minutes for a total dose of 1.25 mg/kg/dose. The animals received 3 to 4 IV doses/session, as detailed below.
• 1. Animals were treated as follows: • 2. IV for 15 minutes • 3. Oral gavage, as soon as practicable following the 15-minute infusion • 4. 1 hour following gavage, IV for 15 minutes. • 5. 2 hours following gavage, IV for 15 minutes Dose 2, inhalation:
Animals were treated as follows: • 1. IV for 15 minutes • 2. Inhalation exposure, as soon as practicable following the 15-minute infusion • 3. Approximately 5 minutes after inhalation completion, IV for 15 minutes. • 4. 1 hour later, IV for 15 minutes Dose 3, inhalation and oral gavage:
Animals were treated as follows: • 1. IV for 15 minutes • 2. Oral gavage, as soon as practicable following the 15-minute infusion • 3. Inhalation exposure, as soon as practicable following oral gavage. All animals were exposed to the low dose (5.26 μg/kg). • 4. Approximately 5 minutes after inhalation completion, IV for 15 minutes. • 5. 1 hour later, IV for 15 minutes • 6. 2 hours after oral gavage, IV for 15 minutes for 2 animals (1 low and 1 high oral dose) Inhaled, Oral and Combination Treprostinil Dosing Results: […]

[2] = cited from earlier work
[3] = low pH (stomach); cited from earlier work

## CCCCC[C@H](O)/C=C/[C@H]1[C@@H]2CO[C@@H](C2)[C@@H]1C/C=C\CCCC(=O)O [U-44069]
[1]; IV U-44069 0.5 mg/mL, 10 mL/kg/hr for 15 minutes, all occasions except animal 2001
  maximum PAP during U-44069 infusion relative to baseline: at least 150 % of the baseline

## CCCCC[C@H](O)/C=C/[C@@H]1[C@H]2C/C(=C/CCCC(=O)O)O[C@H]2C[C@H]1O [prostacyclin]
[2]
  half-life in the blood: 3 to 5 min
[3]
  stability at low pH: inactivated by a low pH

## CCCCC[C@H](O)CC[C@@H]1[C@H]2Cc3cccc(OCC(=O)O)c3C[C@H]2C[C@H]1O [treprostinil]
[1]; combination dosing regimen, in magnitude or duration
  PAP reduction when oral treprostinil added to low dose inhaled treprostinil: additional PAP reduction was observed
[1]; inhalation 5.26, 10.6 or 34.1 μg/kg/day, all dose levels, during U-44069 infusion
  PAP following inhalation exposure (immediately post dosing): approximately 120 % the baseline
[1]; inhalation 5.26, 10.6 or 34.1 μg/kg/day, additional U-44069 injection 1 hour after inhalation
  PAP at 1 hr post dosing compared to IPD values: significantly increased
[1]; low dose inhaled (5.26 μg/kg/day) + high oral gavage, versus individual high dose inhalation (34.1 μg/kg/day), sustained to 1 hr PD
  PAP reduction at IPD, combination dosing Group 3: equivalent (#3001) or greater (#3002)
[1]; low dose inhaled (5.26 μg/kg/day) + low (5 mg/kg/dose) oral gavage, versus low dose inhaled alone
  PAP reduction, combination dosing Group 1: sustained effect to 1 hr
[1]; low dose inhaled (5.26 μg/kg/day) + mid (10 mg/kg/dose) oral gavage, versus individual mid-dose inhalation (10.6 μg/kg/day)
  PAP decrease at IPD, combination dosing Group 2: equivalent or greater
[1]; oral gavage 5, 10 or 15 mg/kg/dose, 1 hr PD and 2 hr PD
  PAP after oral gavage: decreases in PAP were generally observed in a dose-related fashion
[1]; oral gavage, nose-only inhalation or combined
  PAP during the PAH condition, any route of administration: generally reduce PAP
